Experimental findings from patent US20180148418A1, “AMIDO-SUBSTITUTED CYCLOHEXANE DERIVATIVES” (Bayer Pharma Aktiengesellschaft, priority 2015, published 2018) are described below.

This experiment has as its system HEK293 cells cotransfected with the FOP control vector. The experiment in a line: HEK293 FOP assay (control reporter with non-functional TCF elements). In kind it is cell-based. Particulars: Homo sapiens, 16 hours. The essentials: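 Compound series from 50 μM down to 15 nM, prediluted in DMSO then 50-fold into CAFTY buffer (pH 7.4, 2 mM Ca2+, 0.01% BSA), tested alongside TOP cells on a Geneticin-selected HEK293 FOP line whose TCF elements are replaced by a random sequence; recombinant human Wnt-3a applied at 2500-5 ng/ml.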

For `Cc1cc(C)n2ncc(C(=O)N[C@H]3CC[C@@]4(CCN(c5cccc(Cl)c5)C4=O)CC3)c2n1` [Example 270, N-[(trans)-2-(3-chlorophenyl)-1-oxo-2-azaspiro[4.5]dec-8-yl]-5,7-dimethylpyrazolo[1,5-a]pyrimidine-3-carboxamide], the IC50 – broadly, the concentration at which inhibition is half-maximal – was at least 50 µM. As to `O=C(N[C@H]1CC[C@@]2(CCN(c3ccccc3Cl)C2=O)CC1)c1cnc2cccnn12` [Example 271, N-[(trans)-2-(2-chlorophenyl)-1-oxo-2-azaspiro[4.5]dec-8-yl]imidazo[1,2-b]pyridazine-3-carboxamide], the IC50 was at least 50 µM.

`CNC(=O)c1nc[nH]c1C(=O)N[C@H]1CC[C@@]2(CCN(c3cccc(Cl)c3)C2=O)CC1` [Example 276, N^5-[(trans)-2-(3-chlorophenyl)-1-oxo-2-azaspiro[4.5]dec-8-yl]-N^4-methyl-1H-imidazole-4,5-dicarboxamide]: the IC50 is 32 µM. Regarding `CCNC(=O)c1nc[nH]c1C(=O)N[C@H]1CC[C@@]2(CCN(c3cccc(Cl)c3)C2=O)CC1` [Example 277, N^5-[(trans)-2-(3-chlorophenyl)-1-oxo-2-azaspiro[4.5]dec-8-yl]-N^4-ethyl-1H-imidazole-4,5-dicarboxamide], the 50% inhibitory concentration (IC50) was found to be 31 µM. For the compound `CC(C)NC(=O)c1nc[nH]c1C(=O)N[C@H]1CC[C@@]2(CCN(c3cccc(Cl)c3)C2=O)CC1` [Example 278, N^5-[(trans)-2-(3-chlorophenyl)-1-oxo-2-azaspiro[4.5]dec-8-yl]-N^4-(propan-2-yl)-1H-imidazole-4,5-dicarboxamide], the IC50 is at least 50 µM. For the compound `O=C(NC1CC1)c1nc[nH]c1C(=O)N[C@H]1CC[C@@]2(CCN(c3cccc(Cl)c3)C2=O)CC1` [Example 279, N^5-[(trans)-2-(3-chlorophenyl)-1-oxo-2-azaspiro[4.5]dec-8-yl]-N^4-cyclopropyl-1H-imidazole-4,5-dicarboxamide], the concentration for half-maximal inhibition (IC50) is at least 50 µM. `O=C(N[C@H]1CC[C@@]2(CCN(c3cccc(Cl)c3)C2=O)CC1)c1[nH]cnc1C(=O)N1CC(F)C1` [Example 280, N-[(trans)-2-(3-chlorophenyl)-1-oxo-2-azaspiro[4.5]dec-8-yl]-4-[(3-fluoroazetidin-1-yl)carbonyl]-1H-imidazole-5-carboxamide] gave a 50% inhibitory concentration (IC50) of at least 50 µM.

The compound `O=C(NCC(F)(F)F)c1nc[nH]c1C(=O)N[C@H]1CC[C@@]2(CCN(c3cccc(Cl)c3)C2=O)CC1` [Example 281, N^5-[(trans)-2-(3-chlorophenyl)-1-oxo-2-azaspiro[4.5]dec-8-yl]-N^4-(2,2,2-trifluoroethyl)-1H-imidazole-4,5-dicarboxamide] returned an IC50 of at least 50 µM.

`COCCNC(=O)c1nc[nH]c1C(=O)N[C@H]1CC[C@@]2(CCN(c3cccc(Cl)c3)C2=O)CC1` [Example 282, N^5-[(trans)-2-(3-chlorophenyl)-1-oxo-2-azaspiro[4.5]dec-8-yl]-N^4-(2-methoxyethyl)-1H-imidazole-4,5-dicarboxamide] came in with a half-inhibitory concentration (IC50) of 8 µM.
